The values below come from US20110195974A1, “METHODS OF TREATING INFLAMMATORY CONDITIONS WITH ADRENERGIC ANTAGONISTS” (priority 2007, published 2011).

“Also recorded” adds a separate entry of the source. Counter-ions that a name gives are not always drawn.

One data set relates to TNFα. Nature of the data set: Whole blood assay: inhibition of LPS-induced TNFα release (TNF ELISA). The conditions noted are these: for effect on TNF production or release (in words) / inhibition of TNF production at the upper range of the dose curve: 25% whole blood diluted in plasmalyte. It is filed as cell-based, human. The method, then:
[…]. […] The experiment was conducted at least 2 times in duplicates and the fitted representation above consists of the average of those experiments. The IC50 values were calculated using logistic analysis on Origin Software.
FIG. 4 illustrates a graph showing the inhibition of release of TNF α by terbutaline and salbutamol. This assay evaluated the inhibition of TNF production by salbutamol and terbutaline using the whole blood assay. This method utilized an LPS induction at 10 μg/ml in 25% whole blood diluted in plasmalyte. […] Higher doses were not evaluated because the equivalent mg/kg doses would be too high, therefore, limiting their practical use under therapeutic conditions. IC50 values were not calculated. […] The data and the fit were calculated using Origin Software.
FIG. 5 illustrates a graph showing the inhibition of TNF production by butoxamine, and induction of TNF release by atenolol and metoprolol. […].
This assay measured prazosin alone, and the combination of: prasozin/butoxamine, prasozin/butoxamine/terbutaline, prasozin/butoxamine/salbutamol, and prazosin/salbutamol. […].
We collected whole human blood in a polypropylene tube. Containing a final concentration of 10 units of heparin per ml of blood using gravity flow with 19-gauge needle. To prevent non-specific activation of cells, we used the blood within 30 minutes of draw. The blood was diluted with plasmalyte to 50%, 40%, 30%, 20%, and 10% concentrations. In a matrix based assay set up, each blood dilution was treated with various concentrations of LPS dosages ranging from 60 μg/ml, 10 μg/ml, 6 μg/ml, 1 μg/ml, 0.6 μg/ml, 0.1 μg/ml, and 0.06 μg/ml. The LPS treated blood was incubated at 37 degree in an incubator with continues rotation. Following the incubation, the blood was centrifuged and the plasma was evaluated for TNF quantification using the ELISA assay (BD Biosciences, Los Angeles, Calif.).
We initially tested the ability of LPS to produce TNF from monocytes, by adding various dilutions of LPS (60 μg, 10 μg, 6 μg, 1 μg, 0.6 μg, 0.1 μg, 0.06 μg) per ml of diluted blood (blood dilutions 50%, 40%, 20%, 10%, and 5%). Blood dilutions were made in the clinically relevant buffer “plasmalyte”. LPS treated blood was incubated at 37° C. for 2 hr. Following incubation, we separated the plasma samples by centrifugation. We evaluated the samples using TNF-ELISA. […] Relying on FIG. 1, we conducted a blood dilution curve with 10 μg/ml LPS (FIG. 2). Based on interpretation of FIGS. 1 and 2, we concluded that blood dilution of 20-25% would be ideal at an LPS dose of 10 μg/ml. Based on the FIG. 2 data, we found LPS causes a near linear increase of TNF production in 20% blood. […] If there is too much blood, there will be heavy concentrations of TNF production, exceeding the detection levels of the assay. Using this optimization data, we created a fixed method to measure the inhibition of TNF production or release with various drugs and drug combinations.
Blood was drawn from thirteen independent donors under an IRB approved protocol. […] The blood samples were spun and plasma evaluated for TNF production using TNF ELISA from BD Biosciences. […]. […] It could also provide a possible treatment for rheumatoid arthritis. […]
In general terms: ELISA stands for enzyme-linked immunosorbent assay.

The test system of data set [1] is arthritis. The note with it: cited from earlier work; for inhibition of inflammation in an arthritis model: in vivo.
For the next data set, the system named is knee and ankle joints. Nature of the data set: Histology of knee and ankle joints after CIA. The conditions noted are these: CIA mice.
Data set [2] is described as follows: Body weight in mouse CIA model (gross measure of drug toxicity). The note with it: CIA mice, days 18-35.
Data set [3] relates to collagen induced arthritis. The note with it: cited from earlier work.
Data set [4] deals with arthritis. The conditions noted are these: rat arthritis model; cited from earlier work.
The conditions of data set [5]: CIA mice, same experimental protocol; cited from earlier work.

As a reminder, the IC50 is the concentration that gives 50% inhibition.

On to `COc1ccc(OC)c(C(O)C(C)NC(C)(C)C)c1` (racemic) [Butoxamine, DL-erythro-α-(2,5-dimethoxyphenyl)-β-t-butyl aminopropanol hydrochloride], for which, in the data set on TNFα (LPS 10 μg/ml), the “effect on TNF production or release (in words)” value (“effect” below) was “very little inhibition if at all” and the “inhibition of TNF production at the upper range of the dose curve” value is not above 20%. Moreover, the “inhibition of arthritis in animals (in words)” value in the data set with arthritis [1] (previous reports) is recorded as “potent inhibitor of arthritis in animals”.

Regarding `CC(C)NCC(O)COc1ccc(CC(N)=O)cc1` (stereo not shown) [Atenolol, atenolol], the “effect” value in the data set with TNFα (LPS 10 μg/ml) is recorded as “significant elevation in the TNF response; also recorded: activators of TNF release”.

Take `COCCc1ccc(OCC(O)CNC(C)C)cc1` (stereo not shown) [Metoprolol, metoprolol]: the “effect” value in the data set on TNFα (LPS 10 μg/ml) is on record as “significant elevation in the TNF response; also recorded: activators of TNF release”.

Turning to `Cc1ccc(N(CC2=NCCN2)c2cccc(O)c2)cc1` [Phentolamine, phentolamine], the “effect” value in the data set on TNFα (LPS 10 μg/ml) was “does not have the same level of inhibition as prazosin and yohimbine alone”.

`COc1cc2nc(N3CCN(C(=O)c4ccco4)CC3)nc(N)c2cc1OC` [Prazosin, prazosin]: the “drug concentration at which TNF activity is inhibited” value in the data set with TNFα (LPS 10 μg/ml, 25% blood diluted in plasmalyte) amounted to 20 µg/mL. In addition, the “effect” value in the data set on TNFα (LPS 10 μg/ml) was “lowest IC50”. Moreover, the “inhibition of TNF production at the upper range of the dose curve” value in the data set on TNFα (LPS 10 μg/ml) is recorded as approximately 100%. Further, in the data set with TNFα (blood of thirteen independent donors, 37 degrees, 2 hours), the “inhibition of TNF at the upper range of the dose curve, thirteen donors” value is recorded as approximately 100%. Besides, the “joint histology (Toluidine blue)” value in the data set on knee and ankle joints is “prevents inflammation, bone and cartilage destruction, pannus formation and bone erosion”. The body weight change entry was “weight remained constant” in data set [2] and “essentially unchanged” in data set [2] (listed as NM2014).

In the case of `CC(C)(C)NCC(O)c1ccc(O)c(CO)c1` (stereo not shown) [Salbutamol, salbutamol], the “inhibition of inflammation in an arthritis model” value with arthritis [1] is on record as 50%. The “severity of collagen-induced arthritis (in words)” value in data set [3] (mouse, in vivo) is “reduces the severity of collagen-induced arthritis”.

As to `CC(C)(C)NCC(O)c1cc(O)cc(O)c1` (stereo not shown) [Terbutaline, terbutaline], in the data set with TNFα (LPS 10 μg/ml), the “effect” value is “minimal effect”. In the data set on arthritis [1], the “inhibition of inflammation in an arthritis model” value is listed as 50%. The “reduction of disease severity” value with arthritis [4] is listed as 50%. Besides, the “benefit in collagen induced arthritis” value in data set [3] (mice) is listed as 50%.

Consider `COC(=O)[C@@H]1[C@H]2C[C@H]3c4[nH]c5ccccc5c4CCN3C[C@@H]2CC[C@@H]1O` [Yohimbine, yohimbine], for which the IC50 in the data set with TNFα (Homo sapiens, LPS 10 μg/ml, 25% blood diluted in plasmalyte, 37° C. 2 h) is 70 to 100 µg/mL. Moreover, the “inhibition of TNF production at the upper range of the dose curve” value with TNFα (LPS 10 μg/ml) is given as 80%.

Consider Enbrel, for which the “body weight change, historical Enbrel data” value in data set [5] is “essentially unchanged”.
